Assay results taken from US20240082250A1, “NEDDYLATION INHIBITION FOR USE IN THE TREATMENT OF HUMAN IMMUNODEFICIENCY VIRUS (HIV) INFECTION” (priority 2022, published 2024).

Key:
[1] = system: A3G; assay: A3G LMM/HMM distribution, sucrose density gradient and immunoblot, H9 cells; format: cell-based; conditions: 200 nM MLN for 4 or 6 days
Procedure: (§1) A3G low molecular mass forms (LMM) (fractions 1-5) and HMM complexes (fractions 7-12) are visualized by immunoblotting of fractions collected after density gradient centrifugation of a 5-40% sucrose gradient. […] (B) CD4+CD45RO+ memory T cells were isolated from healthy donors; cells were then stimulated with CD3/28 Abs (*) and cultured for 4 days with DMSO, 100 nM, or 200 nM MLN before density gradient centrifugation and immunoblotting of gradient fractions.

[2] = system: intracellular p24; assay: Intracellular p24 production in ACH2 cells exposed to LRAs; format: cell-based, HIV; conditions: ACH2 cells treated with TNFa (n=4), PMA/i (n=4), JQ1 (n=3); vs DMSO control
From the text: (§2) (B) MLN reduces intracellular p24 production from J-Lat 6.3 cells exposed to TNFa, as well as from ACH2 cells exposed to TNFa. […] (C) Six hour treatment of J-Lat cells (both J-Lat 6.3 and J-Lat 11.1) with MLN before and during LRA exposure reduces HIV promoter-driven GFP expression after exposure to TNFa, PMAi and JQ1.
(§3) MLN decreases reactivation of latent provirus, as shown in VIF+, replication-competent provirus, from the latently infected ACH2 T cell line based on HIV capsid p24 amounts in cell culture supernatant fluid and intracellularly after 3 different LRAs: tumor necrosis factor alpha (TNFa) at 10 ng/mL; PMA/ionomycin (PMAi) at 405 pM phorbol 12-myristate 13-acetate (PMA) and 6.7 nM ionomycin (eBiosciences™ stimulation cocktail); and JQ1 at 100 nM (FIGS. 5 and 6). […] MLN reduces intracellular p24 production from ACH2 1 cells treated with TNFa, PMAi, and JQ1, compared to DMSO control (FIG. 6A). […] HIV promoter-driven RNA is also shown to be decreased by MLN before/during TNFa or PMAi (FIG. 7). […] ACH2 cells were pretreated for 6 hours with DMSO, or MLN at […], and then reactivated with 10 ng/mL TNFa or PMA/ionomycin.

[3] = system: HIV promoter-driven GFP expression; assay: HIV promoter-driven GFP expression in J-Lat 6.3 cells; format: cell-based; conditions: six hour MLN treatment before and during LRA exposure (TNFa, PMAi, JQ1)
From the text: as §2, §3

[4] = system: HIV promoter-driven GFP expression; assay: HIV promoter-driven GFP expression in J-Lat 11.1 cells; format: cell-based; conditions: six hour MLN treatment before and during LRA exposure (TNFa, PMAi, JQ1)
From the text: as §2, §3

[5] = system: HIV gag RNA; assay: HIV gag RNA RT-qPCR in ACH2 cells; format: cell-based; conditions: MLN at before and during TNFa 10 ng/mL or PMA/ionomycin, 48 hours after reactivation, vs DMSO
Procedure: Gag RNA is reduced in ACH2 cells as measured by RT-qPCR 48 hours after reactivation. ACH2 cells were treated with either DMSO or MLN (at […]) before and during exposure to either 10 ng/mL TNFa (plot on left) or 405 pM PMA and 6.7 nM ionomycin (eBiosciences stimulation cocktail) (plot on right); 4 separate ACH2 cell cultures were used for each plot's experiment.
as §3

[6] = system: A3G incorporated into virions; assay: Immunoblot of A3G in virions pelleted from ACH2 supernatant; format: cell-based, HIV; conditions: ACH2 cells; MLN before and during TNFa reactivation; immunoblot of viral pellets, n=3
From the text: (§4) (B) MLN treatment of ACH2 cells before and during TNFa provirus reactivation increases the amount of A3G incorporated into virions, a strong candidate mechanism for decreased infectivity shown in (A). Virions from ACH2 cell supernatant were pelleted over a 20% sucrose cushion. […] A3G signal (black bars) and p24 signal (grey bars) from n=3 experiments are quantified on the right (Panel 2 in B).
Virions from ACH2 cell supernatant were pelleted over a 20% sucrose cushion. […] A3G signal (black bars) and p24 signal (grey bars) from n=3 experiments are quantified on the right (Panel 2) in FIG. 3B.

[7] = system: Cullin 2 (CUL2) neddylation; assay: Immunoblot for Cullin 2 (CUL2) neddylation in ACH2 cells; format: cell-based; parameters: dose or concentration left out as unconfirmed; conditions: MLN, with and without TNFa reactivation
[8] = system: HIV capsid antigen (p24); assay: Immunoblot of p24 in reactivated virions pelleted from J-Lat 6.3 supernatant; format: cell-based; conditions: LRA-exposed J-Lat 6.3 cells; MLN vs control
[9] = system: intracellular p24; assay: Intracellular p24 production in J-Lat 6.3 cells exposed to TNFa; format: cell-based, HIV
From the text: as §2

[10] = system: A3G; assay: A3G LMM/HMM distribution, sucrose density gradient and immunoblot, CD4+CD45RO+ memory T cells; format: cell-based; conditions: CD4+CD45RO+ memory T cells from healthy donors, CD3/28 stimulated; 4 days, 100 nM or 200 nM MLN vs DMSO
Procedure: as §1

[11] = system: primary CD4+ T cells; assay: Apoptosis flow cytometry in anti-CD3/CD28-activated uninfected primary CD4+ T cells; format: cell-based; conditions: uninfected CD4+ T cells from 3 healthy donors, anti-CD3/CD28 activated 48 hrs; 200 nM MLN; at 16 hours
Procedure: (§5) ACH2 cells were pretreated for 6 hours with 200 nM MLN prior to provirus reactivation with 10 ng/mL TNFa. 16 hours post-TNFa addition cells were collected; apoptosis was measured via flow cytometry by staining for Annexin V and SYTOX Green DNA intercalant. […] Data was collected 24 hours after TNFa addition. (C) CD4+ T cells from 3 healthy donors were activated for 48 hrs with anti-CD3/CD28 antibodies. Cells were then treated with 200 nM of MLN and apoptosis was measured after 6, 16, and 24 hrs of drug treatment using flow cytometry. * p<0.05 *** p=0.0002 (D) Expression of RNA encoding cell cycling and apoptotic targets assessed before in ACH2 cells was determined in primary CD4 T cells via RT-qPCR. Gene expression was normalized to 18S control ** p=0.0033 **** p<0.0001 A&B) n=3 donors.
(§6) ACH2 cells were treated with 200 nM MLN for 6 hours before and then during reactivation with 10 ng/mL TNFa. 16 hours post-TNFa addition, cells were collected and percentage of apoptotic cells increased with MLN treatment upon reactivation (FIG. 8A).

[12] = system: ACH2 cells; assay: Annexin V / SYTOX Green apoptosis flow cytometry in ACH2 cells; format: cell-based; conditions: 200 nM MLN 6 hours before and during 10 ng/mL TNFa, 16 hours post-TNFa
Procedure: as §5, §6

[13] = system: Cullin RING Ligase (CRL^Vif)-mediated degradation of APOBEC3G (A3G); conditions: ex vivo, de novo HIV infections; previously reported; cited from earlier work
[14] = system: HIV capsid antigen (p24); assay: Immunoblot of p24 in reactivated virions pelleted from ACH2 supernatant; format: cell-based; conditions: LRA-exposed ACH2 cells; MLN vs control
Procedure: as §3

[15] = system: NOXA, PUMA, p21, p53 RNA; assay: RT-qPCR for apoptotic targets and cell cycle indicators in ACH2 cells; format: cell-based; conditions: 200 nM MLN before and during 10 ng/mL TNFa, 24 hours after TNFa
Procedure: as §5, §6

[16] = system: PUMA, NOXA, p21, p53 RNA; assay: RT-qPCR for apoptotic targets and cell cycle indicators in primary CD4 T cells; format: cell-based; conditions: MLN
Procedure: as §5, §6

[17] = system: HIV capsid antigen (p24); assay: Extracellular p24 ELISA of ACH2 culture supernatant after provirus reactivation; format: cell-based; conditions: ACH2 cells; MLN before and during LRAs (TNFa 10 ng/mL, PMA/i, JQ1), n=3 each
Procedure: as §3

[18] = system: HIV; assay: Infectivity of HIV reactivated from ACH2 cells, TZM-bl reporter cell luciferase assay; format: cell-based; conditions: ACH2 cells treated with MLN 100 nM or 200 nM before and during LRA (TNFa, PMAi, JQ1), vs DMSO, p24-normalized
Procedure: as §4
Virus infectivity was determined by infecting TZM-bl reporter cell line with p24-equivalent amounts of culture supernatant fluid (e.g., normalized to the same p24 amount, as a surrogate for inoculating the same number of virions) from cells pretreated with MLN or DMSO control and reactivated by the 3 LRAs). Supernatant infectivity was measured via luciferase activity in the form of […] (RFU) where higher RFU signifies greater infectivity. Average RFU values were normalized to the control condition (LRA alone without MLN treatment) such that maximum infectivity seen in that control condition is set to 100%.

In the case of `NS(=O)(=O)OC[C@@H]1C[C@@H](n2ccc3c(N[C@H]4CCc5ccccc54)ncnc32)C[C@@H]1O` [MLN, pevonedistat], the “intracellular distribution of A3G (LMM form vs HMM complexes)” value [1] is reported as “shift to LMM form”, the “intracellular p24 production” value [2] is reported as “significantly reduces” and the “HIV promoter-driven GFP expression” value [3] is reported as “reduces”. For the same compound, the “HIV promoter-driven GFP expression” value [4] was “reduces”, the “HIV gag RNA expression (RT-qPCR)” value [5] was “reduced” and the “amount of A3G incorporated into virions” value [6] was “increases”. For the same compound, the “Cullin 2 (CUL2) neddylation” value [7] was “inhibits”, the “p24 antigen in pelleted reactivated virions (immunoblot)” value [8] was “reduced” and the “intracellular p24 production” value [9] was “reduces”. The “intracellular distribution of A3G (LMM form vs HMM complexes)” value [10] was “shift to LMM form”, the “apoptosis-mediated cell death (Annexin V)” value [11] was “increase” and the “percentage of cells dying from apoptosis (Annexin V)” value [12] was “increases”. For the same compound, the “CRL^Vif-mediated degradation of APOBEC3G (A3G)” value [13] was “block”, the “p24 antigen in pelleted reactivated virions (immunoblot)” value [14] was “reduced” and the “p53 RNA expression” value [15] was “does not increase”. The “relative expression of RNA encoding NOXA” value [15] was “increased”, the “relative expression of RNA encoding PUMA” value [15] was “increased” and the “relative expression of RNA encoding p21” value [15] was “increased”. The “p53 RNA expression” value [16] was “did not significantly increase”, the “NOXA gene expression (RT-qPCR)” value ([16]; normalized to 18S) was “increase” and the “PUMA gene expression (RT-qPCR)” value ([16]; normalized to 18S) was “increase”. For the same compound, the “p21 expression (RT-qPCR)” value ([16]; normalized to 18S) was “increase”, the “extracellular p24 antigen in culture supernatant fluid (ELISA)” value [17] was “significantly reduced” and the “infectivity of HIV in culture supernatant fluid” value [18] was “less infectious”.
